The text below walks through data of patent publication US20100261706A1, “SUBSTITUTED TETRACYCLIC 1H-INDENO [1,2-B]PYRIDINE-2(5H)-ONE ANALOGS THEREOF AND USES THEREOF” (INOTEK PHARMACEUTICALS CORPORATION, priority 2008, published 2010).

One test has as its target T1, PARP (Mus musculus, UniProt P11103).
T1 construct: PARP Activity in Cultured Macrophages, Using a Whole-Cell Based Assay; endogenous in cells; host or cells: murine RAW macrophages (ATCC)
Kind of test: PARP activity in cultured macrophages, whole-cell based assay (3H-NAD+ incorporation after hydrogen peroxide). To be noted: murine RAW macrophages, 1 hour pretreatment, hydrogen peroxide 0.5 mM. The method, then:
Effect of Tetracyclic 1H-indeno[1,2-b]pyridine-2(511)-one Analogs on PARP Activity in Cultured Macrophages, Using a Whole-Cell Based Assay
The murine RAW macrophages (ATCC, American Type Culture Collection, Manassas, Va.) were grown in […] (Invitrogen Life Technologies; Carlsbad, Calif.) medium supplemented with 10% heat-inactivated FBS, 2 mM L-glutamine, and 100 U/ml of penicillin and streptomycin. Cells, between passages 5 and 15, were seeded at a density of 250,000 cells/well in 12 well plates and allowed to grow 48 hours before use. Growth medium was changed on the day of use. Cells were treated with a tetracyclic 1H-indeno[1,2-b]pyridine-2(5H)-one analog diluted in a growth medium supplemented with 10% fetal bovine serum (FBS) for 1 hour prior to the addition of hydrogen peroxide (0.5 mM) for a further 25 minutes. For the measurement of PARP activity, media was removed and replaced with 0.5 ml of the assay buffer (56 mM HEPES-pH 7.5, 28 mM KCl, 28 mM NaCl, 2 mM MgCl2, 0.01% digitonin, and 0.5 μCi/ml of ^3H-NAD^+) for 20 minutes. After aspirating the assay buffer, cells were lysed and transferred to eppendorf tubes containing 250 μl of 50% ice-cold trichloroacetic acid (TCA), which were then placed at 4° C. for 4 hours. Samples were centrifuged at 10,000 g for 10 minutes and supernatant removed. The pellets were washed twice with 500 μl of ice-cold 5% w/v TCA. The pellets were then solubilized in 250 μl of NaOH (0.1 M) containing 2% SDS overnight at 37° C. and the PARP activity was then determined by measuring the radioactivity incorporated using a Wallac scintillation counter. The solubilized protein (250 μl) was mixed with 5 ml of scintillation fluid (ScintiSafe Plus, Fisher Scientific) before being counted for 3 minutes. EC50 values were determined from a dose-response curve.

The target in a further test is T2, PARP-1 enzyme (Homo sapiens, UniProt P09874).
T2 construct: purchased Trevigen, Gaithersburg, Md
As to the kind of experiment: Purified PARP-1 enzyme inhibition assay (Trevigen kit, 96 well ELISA plates). The format is biochemical. Here is the method:
Effect of Tetracyclic 1H-indeno[1,2-b]pyridine-2(5H)-one analogs on PARP Activity in purified PARP-1 enzyme assay
The potency of inhibition on purified PARP-1 enzyme was subsequently determined for selected compounds, and the potency was compared with INO-1001. The assay was performed in 96 well ELISA plates according to instructions provided with a commercially available PARP-1 inhibition assay kit (Trevigen, Gaithersburg, Md.). Briefly, wells were coated with 1 mg/ml histone (50 μl/well) at 4° C. overnight. Plates were then washed four times with PBS and then blocked by adding 50 μl Strep-Diluent (supplied with the kit). After incubation (1 h, 25° C.), the plates were washed four times with PBS. Appropriate dilutions of compound was combined with 2×PARP cocktail (1.95 mM NAD^+, 50 μM biotinylated NAD^+ in 50 mM TRIS pH 8.0, 25 mM MgCl2) and high specific activity PARP enzyme (both were supplied with the kit) in a volume of 50 μl. The reaction was allowed to proceed for 30 min at room temperature. After 4 washes in PBS, incorporated biotin was detected by peroxidase-conjugated streptavidin (1:500 dilution) and TACS Sapphire substrate. EC50 and IC50 values were determined from a dose-response curve.

pEC50, pIC50: −log10 of the molar value. Counter-ions that a name gives are not always drawn. A value given as a limit tells only on which side of the number the result lay.

T2 sequence (P09874 whole entry): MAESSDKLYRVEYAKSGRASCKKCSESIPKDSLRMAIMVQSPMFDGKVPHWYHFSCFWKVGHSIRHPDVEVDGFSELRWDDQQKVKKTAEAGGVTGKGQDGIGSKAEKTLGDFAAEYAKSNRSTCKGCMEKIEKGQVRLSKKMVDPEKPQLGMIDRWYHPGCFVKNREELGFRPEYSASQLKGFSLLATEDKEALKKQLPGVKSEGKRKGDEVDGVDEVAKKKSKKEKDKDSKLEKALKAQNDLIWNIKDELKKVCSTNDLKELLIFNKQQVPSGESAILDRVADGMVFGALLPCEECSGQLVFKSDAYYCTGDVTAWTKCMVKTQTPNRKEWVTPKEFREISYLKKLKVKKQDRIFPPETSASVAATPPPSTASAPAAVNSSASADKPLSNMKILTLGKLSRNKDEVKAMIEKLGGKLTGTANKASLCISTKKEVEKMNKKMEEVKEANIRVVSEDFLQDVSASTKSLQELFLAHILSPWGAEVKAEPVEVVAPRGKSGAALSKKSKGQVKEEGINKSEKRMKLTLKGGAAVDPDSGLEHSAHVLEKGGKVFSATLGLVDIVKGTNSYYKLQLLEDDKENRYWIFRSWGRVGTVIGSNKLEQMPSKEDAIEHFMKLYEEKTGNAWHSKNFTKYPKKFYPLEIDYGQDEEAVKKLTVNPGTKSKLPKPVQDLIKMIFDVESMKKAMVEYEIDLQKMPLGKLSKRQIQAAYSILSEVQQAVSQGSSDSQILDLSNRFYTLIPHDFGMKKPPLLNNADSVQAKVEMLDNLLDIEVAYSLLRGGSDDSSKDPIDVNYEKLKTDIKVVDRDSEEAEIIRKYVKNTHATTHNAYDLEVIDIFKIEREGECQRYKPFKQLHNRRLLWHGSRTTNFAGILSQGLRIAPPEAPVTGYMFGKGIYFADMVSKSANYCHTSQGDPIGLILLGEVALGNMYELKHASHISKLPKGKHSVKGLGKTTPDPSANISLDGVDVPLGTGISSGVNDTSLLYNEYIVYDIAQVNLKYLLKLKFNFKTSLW
T1 sequence (P11103 whole entry): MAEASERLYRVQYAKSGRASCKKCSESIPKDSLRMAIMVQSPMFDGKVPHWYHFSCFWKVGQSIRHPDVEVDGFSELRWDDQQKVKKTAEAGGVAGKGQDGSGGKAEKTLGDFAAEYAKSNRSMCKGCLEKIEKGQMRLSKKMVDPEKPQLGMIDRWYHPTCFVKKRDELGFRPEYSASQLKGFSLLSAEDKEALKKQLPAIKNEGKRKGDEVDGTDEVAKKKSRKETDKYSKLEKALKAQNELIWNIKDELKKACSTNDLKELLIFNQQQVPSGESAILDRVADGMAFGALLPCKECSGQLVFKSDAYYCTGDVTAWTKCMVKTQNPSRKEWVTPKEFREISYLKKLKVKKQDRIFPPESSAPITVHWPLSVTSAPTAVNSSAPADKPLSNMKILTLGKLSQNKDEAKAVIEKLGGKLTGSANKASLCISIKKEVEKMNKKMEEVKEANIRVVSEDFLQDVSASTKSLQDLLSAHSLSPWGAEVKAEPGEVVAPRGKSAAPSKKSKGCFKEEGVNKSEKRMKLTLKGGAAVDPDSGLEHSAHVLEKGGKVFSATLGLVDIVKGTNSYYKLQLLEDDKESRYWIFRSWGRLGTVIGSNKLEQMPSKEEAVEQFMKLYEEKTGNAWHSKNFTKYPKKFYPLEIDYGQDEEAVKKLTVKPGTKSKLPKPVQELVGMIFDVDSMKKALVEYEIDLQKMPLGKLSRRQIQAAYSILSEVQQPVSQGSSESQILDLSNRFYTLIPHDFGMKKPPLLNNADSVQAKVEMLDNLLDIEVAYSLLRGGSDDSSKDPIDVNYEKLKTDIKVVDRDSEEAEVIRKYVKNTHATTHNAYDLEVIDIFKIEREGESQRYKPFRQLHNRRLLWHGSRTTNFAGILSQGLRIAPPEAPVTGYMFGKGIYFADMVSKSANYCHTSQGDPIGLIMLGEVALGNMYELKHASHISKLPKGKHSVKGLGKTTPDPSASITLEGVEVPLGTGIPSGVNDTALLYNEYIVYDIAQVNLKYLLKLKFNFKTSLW

For the compound `CC(C)N1CCN(c2cccc3c2Cc2c-3[nH]c(=O)c3cccnc23)CC1` [Example 60, 10-(4-isopropylpiperazin-1-yl)-6,11-dihydro-5,1-indeno[1,2-h][1,6]naphthyridin-5-one], on PARP, the pEC50 is 7.43. This compound gave a negative-log IC50 (pIC50) at PARP-1 enzyme of 7.72.
For `O=c1[nH]c2c(c3c1CCCC3)Cc1c(CN3CC=CCC3)cccc1-2` [Example 69, 10-((5,6-dihydropyridin-1(2H)-yl)methyl)-3,4,6,11-tetrahydro-1H-indeno[1,2-c]isoquinolin-5(2H)-one] the same measures were 7.74 and 7.26.
On to `CCCN1CCN(c2cccc3c2Cc2c-3[nH]c(=O)c3c2CCCC3)CC1` [Example 41, 10-(4-propylpiperazin-1-yl)-3,4,6,11-tetrahydro-1H-indeno[1,2-c]isoquinolin-5(2H)-one], for which, on PARP, the pEC50 is 7.35. At PARP-1 enzyme, this compound gave a pIC50 of 8.20.
For the compound `CC1CCN(Cc2cccc3c2Cc2c-3[nH]c(=O)c3c2CCCC3)CC1` [Example 20, 10-((4-methylpiperidin-1-yl)methyl)-3,4,6,11-tetrahydro-1H-indeno[1,2-c]isoquinolin-5(2H)-one mesylate], the negative logarithm of the EC50 (pEC50) at PARP is 8.39. The same compound had a pIC50 against PARP-1 enzyme of 8.28.
Take `O=c1[nH]c2c(c3ncccc13)Cc1c(CNC3CCCC3)cccc1-2` [Example 62, 10-((cyclopentylamino)methyl)-6,11-dihydro-5H-indeno[1,2-h][1,6]naphthyridin-5-one]: the pEC50 on PARP is 7.89. At PARP-1 enzyme, the pIC50 is 7.55.
`O=c1[nH]c2c(c3c1CCCC3)Cc1c(CN3CCCCC3)cccc1-2` [Example 2, 10-(piperidin-1-ylmethyl)-3,4,6,11-tetrahydro-1H-indeno[1,2-c]isoquinolin-5(2H)-one]: the pEC50 at PARP was 8.82. Besides, the pIC50 on PARP-1 enzyme is 8.29.
Regarding `O=c1[nH]c2c(c3sccc13)Cc1c(CNC3CCCC3)cccc1-2` [Example 55, 9-((cyclopentylamino)methyl)-5,10-dihydro-4H-indeno[1,2-b]thieno[2,3-d]pyridin-4-one], at PARP, the negative logarithm of the EC50 (pEC50) was 7.47. The compound further gave a pIC50 against PARP-1 enzyme of 7.39.
`O=c1[nH]c2c(c3c1CCCC3)Cc1cc(CNCCN3CCOCC3)ccc1-2` [Example 45, 9-((2-morpholinoethylamino)methyl)-3,4,6,11-tetrahydro-1H-indeno[1,2-c]isoquinolin-5(2H)-one]: the pEC50 at PARP was 7.60. This compound showed a pIC50 on PARP-1 enzyme of 8.26.
On to `COCCN1CCN(c2cccc3c2Cc2c-3[nH]c(=O)c3c2CCCC3)CC1` [Example 43, 10-(4-(2-methoxyethyl)piperazin-1-yl)-3,4,6,11-tetrahydro-1H-indeno[1,2-c]isoquinolin-5(2H)-one], for which, on PARP, the negative logarithm of the EC50 (pEC50) was 8.05. The same compound had a negative-log IC50 (pIC50) on PARP-1 enzyme of 8.09.
The matching figures for `O=c1[nH]c2c(c3c1CCCC3)Cc1c(CN3CCC(O)CC3)cccc1-2` [Example 1, 10-((4-hydroxypiperidin-1-yl)methyl)-3,4,6,11-tetrahydro-1H-indeno[1,2-c]isoquinolin-5(2H)-one]: 7.95 and 8.42.
In the case of `COCCNCc1ccc2c(c1)Cc1c-2[nH]c(=O)c2c1CCCC2` [Example 36, 9-((2-methoxyethylamino)methyl)-3,4,6,11-tetrahydro-1H-indeno[1,2-c]isoquinolin-5(2H)-one], the pEC50 at PARP is 7.30. For the same compound, the pIC50 at PARP-1 enzyme is 8.05.
For `CCN1CCN(c2cccc3c2Cc2c-3[nH]c(=O)c3cccnc23)CC1` [Example 59, 10-(4-ethylpiperazin-1-yl)-6,11-dihydro-5H-indeno[1,2-h][1,6]naphthyridin-5-one] the same measures were 8.62 and 7.91.
As to `CN1CCN(c2cccc3c2Cc2c-3[nH]c(=O)c3cccnc23)CC1` [Example 56, 10-(4-methylpiperazin-1-yl)-6,11-dihydro-5H-indeno[1,2-d][1,6]naphthyridin-5-one], on PARP, the pEC50 was 8.05. Further, on PARP-1 enzyme, the negative-log IC50 (pIC50) was 7.70.
With `C[C@@H]1CN(c2cccc3c2Cc2c-3[nH]c(=O)c3c2CCCC3)C[C@H](C)O1` [Example 32, 10-(2,6-dimethylmorpholino)-3,4,6,11-tetrahydro-1H-indeno[1,2-c]isoquinolin-5(2H)-one], on PARP, the pEC50 was 7.00. The negative logarithm of the IC50 (pIC50) at PARP-1 enzyme is 7.64.
In the case of `C[S+]([O-])CCC(=O)Nc1cccc2c1Cc1c-2[nH]c(=O)c2c1CCCC2` (stereo not drawn) [Example 53, 3-(methylsulfinyl)-N-(5-oxo-2,3,4,5,6,11-hexahydro-1H-indeno[1,2-c]isoquinolin-10-yl)propanamide], the negative logarithm of the EC50 (pEC50) on PARP is 8.22. The negative-log IC50 (pIC50) against PARP-1 enzyme was 7.05.
Take `CC(C)(O)C(=O)Nc1cccc2c1Cc1c-2[nH]c(=O)c2c1CCCC2` [Example 51, 2-hydroxy-2-methyl-N-(5-oxo-2,3,4,5,6,11-hexahydro-1H-indeno[1,2-c]isoquinolin-10-yl)propanamide]: the negative-log EC50 (pEC50) at PARP was 7.23. The compound further showed a pIC50 against PARP-1 enzyme below 6.60.
With `O=c1[nH]c2c(c3c1CCCC3)Cc1c(CNC3(CO)CCCC3)cccc1-2` [Example 50, 10-((1-(hydroxymethyl)cyclopentylamino)methyl)-3,4,6,11-tetrahydro-1H-indeno[1,2-c]isoquinolin-5(2H)-one], the negative-log EC50 (pEC50) at PARP is 8.30. The same compound showed a pIC50 at PARP-1 enzyme of 8.20.
For `O=c1[nH]c2c(c3c1CCCC3)Cc1c(CNC3CCCC3)cccc1-2` [Example 26, 10-((cyclopentylamino)methyl)-3,4,6,11-tetrahydro-1H-indeno[1,2-c]isoquinolin-5(2H)-one] the same measures were 8.30 and 8.47.
Turning to `O=c1[nH]c2c(c3c1CCCC3)Cc1c(CN3CCC(O)CC3)cccc1-2` [Example 3, 10-((4-hydroxypiperidin-1-yl)methyl)-3,4,6,11-tetrahydro-1H-indeno[1,2-c]isoquinolin-5(2H)-one hydrochloride], the pIC50 against PARP-1 enzyme was 7.95.
For `O=c1[nH]c2c(c3c1CCCC3)Cc1c(CN3CCC(N4CCCC4)CC3)cccc1-2` [Example 23, 10-((4-(pyrrolidin-1-yl)piperidin-1-yl)methyl)-3,4,6,11-tetrahydro-1H-indeno[1,2-c]isoquinolin-5(2H)-one], at PARP, the pEC50 is 7.68. This compound gave a pIC50 at PARP-1 enzyme of 7.90.
In the case of `O=c1[nH]c2c(c3ncccc13)Cc1c-2cccc1N1CCN(CC2CC2)CC1` [Example 61, 10-(4-(cyclopropylmethyl)piperazin-1-yl)-6,11-dihydro-5H-indeno[1,2-h][1,6]naphthyridin-5-one], the pEC50 at PARP was 7.34. At PARP-1 enzyme, the pIC50 is 7.55.
On to `CCOC1CCN(Cc2cccc3c2Cc2c-3[nH]c(=O)c3c2CCCC3)CC1` [Example 9, 10-((4-ethoxypiperidin-1-yl)methyl)-3,4,6,11-tetrahydro-1H-indeno[1,2-c]isoquinolin-5(2H)-one], for which the negative logarithm of the EC50 (pEC50) at PARP was 7.90. The compound also showed a negative logarithm of the IC50 (pIC50) on PARP-1 enzyme of 7.03.
As to `CCCCN1CCN(c2cccc3c2Cc2c-3[nH]c(=O)c3cccnc23)CC1` [Example 58, 10-(4-butylpiperazin-1-yl)-6,11-dihydro-5H-indeno[1,2-h][1,6]naphthyridin-5-one], the pEC50 at PARP is 8.21. The same compound showed a pIC50 against PARP-1 enzyme of 7.59.
The matching figures for `O=c1[nH]c2c(c3ccsc13)Cc1c(CNC3CCCC3)cccc1-2` [Example 48, 9-((cyclopentylamino)methyl)-5,10-dihydro-4H-indeno[1,2-b]thieno[3,2-d]pyridin-4-one]: 8.00 and 7.57.
With `CSCCC(=O)Nc1cccc2c1Cc1c-2[nH]c(=O)c2c1CCCC2` [Example 52, 3-(methylthio)-N-(5-oxo-2,3,4,5,6,11-hexahydro-1H-indeno[1,2-c]isoquinolin-10-yl)propanamide], the pEC50 on PARP was 7.26. In addition, the pIC50 against PARP-1 enzyme is 7.13.
The matching figures for `COCCN1CCN(c2cccc3c2Cc2c-3[nH]c(=O)c3cccnc23)CC1` [Example 49, 10-(4-(2-methoxyethyl)piperazin-1-yl)-6,11-dihydro-5H-indeno[1,2-h][1,6]naphthyridin-5-one]: 7.64 and 7.25.
